Assays:
Format in all cases: functional
[1] = system: T47D; test: Cytotoxicity against human T47D cells assessed as cellular growth at 10 uM by SRB assay
[2] = system: MDA-MB-231; test: Cytotoxicity against human MDA-MB-231 cells assessed as cellular growth at 10 uM by SRB assay
[3] = system: MCF7; test: Cytotoxicity against human MCF7 cells assessed as cellular growth at 10 uM by SRB assay
[4] = system: UO-31; test: Cytotoxicity against human UO31 cells assessed as cellular growth at 10 uM by SRB assay
[5] = system: ACHN; test: Cytotoxicity against human ACHN cells assessed as cellular growth at 10 uM by SRB assay
[6] = system: SK-OV-3; test: Cytotoxicity against human SKOV3 cells assessed as cellular growth at 10 uM by SRB assay
[7] = system: OVCAR-8; test: Cytotoxicity against human OVCAR8 cells assessed as cellular growth at 10 uM by SRB assay
[8] = system: OVCAR-3; test: Cytotoxicity against human OVCAR3 cells assessed as cellular growth at 10 uM by SRB assay
[9] = system: UACC-257; test: Cytotoxicity against human UACC257 cells assessed as cellular growth at 10 uM by SRB assay
[10] = system: SK-MEL-5; test: Cytotoxicity against human SK-MEL-5 cells assessed as cellular growth at 10 uM by SRB assay
[11] = system: SK-MEL-28; test: Cytotoxicity against human SK-MEL-28 cells assessed as cellular growth at 10 uM by SRB assay
[12] = system: SK-MEL-2; test: Cytotoxicity against human SK-MEL-2 cells assessed as cellular growth at 10 uM by SRB assay
[13] = system: LOX IMVI; test: Cytotoxicity against human LOXIMVI cells assessed as cellular growth at 10 uM by SRB assay
[14] = system: U-251; test: Cytotoxicity against human U251 cells assessed as cellular growth at 10 uM by SRB assay
[15] = system: SNB-75; test: Cytotoxicity against human SNB75 cells assessed as cellular growth at 10 uM by SRB assay
[16] = system: SF-539; test: Cytotoxicity against human SF539 cells assessed as cellular growth at 10 uM by SRB assay
[17] = system: HCT-116; test: Cytotoxicity against human HCT116 cells assessed as cellular growth at 10 uM by SRB assay
[18] = system: NCI-H226; test: Cytotoxicity against human NCI-H226 cells assessed as cellular growth at 10 uM by SRB assay
[19] = system: EKVX; test: Cytotoxicity against human EKVX cells assessed as cellular growth at 10 uM by SRB assay
[20] = system: RPMI-8226; test: Cytotoxicity against human RPMI8226 cells assessed as cellular growth at 10 uM by SRB assay

Row | SMILES | Activity [1] [%] | Activity [2] [%] | Activity [3] [%] | Activity [4] [%] | Activity [5] [%] | Activity [6] [%] | Activity [7] [%] | Activity [8] [%] | Activity [9] [%] | Activity [10] [%] | Activity [11] [%] | Activity [12] [%] | Activity [13] [%] | Activity [14] [%] | Activity [15] [%] | Activity [16] [%] | Activity [17] [%] | Activity [18] [%] | Activity [19] [%] | Activity [20] [%]
1 | O=C(Nc1nc2ccccc2s1)c1ccc(F)cc1 | 55.31 | 95.53 | 68.1 | 89.11 | 98.03 | 108.36 | 109.5 | 103.91 | 107.84 | 91.3 | 113.63 | 113.78 | 100.61 | 99.72 | 96.73 | 101.66 | 92.81 | 92.69 | 77.77 | 88.45
2 | O=c1/c(=C/c2ccccc2Cl)sc2nc(-c3ccccc3)nn12 | 90.39 | 90.97 | 91.04 | 58.67 | 97.57 | 104.04 | 97.99 | 108.39 | 85.66 | 93.49 | 109.04 | 100.14 | 63.33 | 89.87 | 64.38 | 94.89 | 72.43 | 100.04 | 99.45 | 50.72
3 | O=c1/c(=C/c2ccc(Cl)cc2Cl)sc2nc(-c3ccccc3)nn12 | 90.03 | 98.54 | 103.07 | 114.46 | 107.07 | 109.75 | 110.37 | 116 | 112.2 | 106.75 | 117.34 | 107.26 | 95.09 | 103.07 | 116.38 | 121.38 | 106.75 | 98.92 | 111.1 | 112.43
4 | COc1cc(/C=c2/sc3nc4ccccc4n3c2=O)cc(I)c1O | 82.96 | 107.43 | 93.11 | 70.56 | 107.3 | 96.7 | 97.39 | 97.63 | 105.01 | 81.43 | 111.82 | 104.64 | 93.01 | 101.21 | 114.58 | 112.47 | 98.72 | 94.19 | 92.52 | 74.12
5 | O=C1N=C(c2ccccc2)S/C1=C\c1ccc2c(c1)OCO2 | 94.58 | 104.95 | 101.6 | 86.92 | 99.6 | 98.47 | 96.76 | 95.8 | 92.39 | 96.34 | 106.02 | 110.33 | 102.92 | 90.93 | 95.66 | 95.81 | 104.4 | 95.12 | 98.04 | 92.67
6 | Cc1ccc(C(=O)/C=C2/Nc3ccc(C)cc3OC2=O)cc1 | 104.44 | 88.3 | 96.32 | 94.47 | 104.27 | 115.37 | 102.51 | 116.56 | 103.75 | 100.21 | 118.66 | 123.75 | 104.53 | 108.93 | 72.48 | 108.44 | 110.04 | 108.24 | 92.88 | 56.86
7 | Cc1ccc2c(c1)N/C(=C/C(=O)c1ccc(Cl)cc1)C(=O)O2 | 106.85 | 86.67 | 87.54 | 94.15 | 103.68 | 110.03 | 101.66 | 119.21 | 97.03 | 102.04 | 116.13 | 108.87 | 100.45 | 100.94 | 86.32 | 106.89 | 105.71 | 105.28 | 106.62 | 64.3
8 | Cc1ccc(C2=N/C(=C\c3ccccc3)C(=O)O2)cc1 | 105.06 | 105.18 | 103.73 | 102.89 | 104.91 | 109.52 | 102.69 | 105.55 | 101.52 | 105.32 | 105.81 | 108.55 | 105.76 | 107.92 | 90.22 | 103.23 | 114.29 | 102 | 90.26 | 102.87

From ChEMBL document CHEMBL2202954, “The effect of PLC-γ2 inhibitors on the growth of human tumour cells” (2012)
